From PMC7604171 (Journal of agricultural and food chemistry, 2020)
Converted amounts (≈) assume the structure as drawn. “And” between values parts separate entries of the source, which are not always exact repeats. Equal entries are not always repeated. Where two headings read alike, the source gives them in different places.

Columns and labels:
[1] = system: Cal-27 oral squamous cell carcinoma cell line; experiment: MTT anti-proliferation assay in Cal-27; type: cell-based; conditions: for IC50 anti-proliferation activity: Cal-27, MTT, triplicate; for IC50: Homo sapiens, read-out: IC50 anti-proliferation activity
[2] = system: SCC-9 oral squamous cell carcinoma cell line; experiment: MTT anti-proliferation assay in SCC-9; type: cell-based; conditions: for IC50 anti-proliferation activity: SCC-9, MTT, treatment period 72 hr, triplicate; for IC50: Homo sapiens, SCC-9, 72 h, read-out: IC50 anti-proliferation activity
[3] = Caco-2 monolayer apical to basolateral transport; type: in vitro ADME; conditions: human, Caco-2, pH 7.4
[4] = in vivo; conditions: C57BL/6, mouse, iv, 5 mg/kg
[5] = Oral pharmacokinetics of ME in corn oil in mice
[6] = I.V. pharmacokinetics of ME nanosuspension in mice
[7] = Oral pharmacokinetics of ME nanosuspension in mice; conditions: for absolute bioavailability (estimated): oral 60 mg/kg ME nanosuspension vs I.V. 5 mg/kg
[8] = mouse, in vivo, iv
[9] = system: Caco-2 cell monolayer; experiment: Caco-2 monolayer apical to basolateral transport; type: in vitro ADME; conditions: ME 0.05 mg/mL in HBSS pH 7.4, 37 °C, n=3
[10] = system: CYP450 (mouse liver microsomes); experiment: Phase I CYP metabolism of MHNK to HNK in mouse liver microsomes; type: in vitro ADME, C57BL/6 mouse; conditions: 0.5 µM MHNK, after 60 min, 37 °C
[11] = system: CYP450 (mouse intestinal S9 fraction); experiment: Phase I CYP metabolism of MHNK to HNK in mouse intestinal S9 fraction; type: in vitro ADME, C57BL/6 mouse; conditions: MHNK 5, 1 and 0.5 µM, 60 min
[12] = C57BL/6, mouse, in vivo, po, 60 mg/kg
[13] = C57BL/6, mouse, in vivo, iv, 5 mg/kg
[14] = oral 60 mg ME/kg in corn oil, mouse whole blood, n=5
[15] = oral 60 mg ME/kg in corn oil, n=5
[16] = I.V. 5 mg ME/kg, mouse whole blood, n=5
[17] = oral 60 mg ME/kg in nanosuspension, mouse whole blood, n=5
[18] = oral 60 mg ME/kg in nanosuspension, n=5

Work on `O=c1[nH]cc(F)c(=O)[nH]1` [5-FU, reference compound] yielded an IC50 anti-proliferation activity ([1]; treatment period 72 hr) of 0.4 ± 0.1 µg/mL (≈ 3.08 µM) and an IC50 anti-proliferation activity [2] of 1.9 ± 0.4 µg/mL (≈ 14.6 µM).

Molecule `C=CCc1ccc(O)c(-c2ccc(O)c(CC=C)c2)c1` [HNK, honokiol] has an IC50 ([1]; CAL-27, 24 h) of 20.8 ± 1.3 µg/mL (≈ 78.1 µM), an IC50 ([1]; CAL-27, 48 h) of 12.2 ± 1 µg/mL (≈ 45.8 µM) and an IC50 ([1]; CAL-27, 72 h) of 6.6 ± 0.6 µg/mL (≈ 24.8 µM). The IC50 ([1]; CAL-27, 96 h) was 4.2 ± 0.4 µg/mL (≈ 15.8 µM), the IC50 [2] was 5.5 ± 0.6 µg/mL (≈ 20.7 µM) and the Papp A→B at 4 h, 0.05 mg/mL [3] was 13.4 ×10⁻⁶ cm/s. The AUC(0-inf) [4] was 1150 ± 719 ng·h/mL, the AUC(0-t) [4] was 1150 ± 719 ng·h/mL and the Cmax [4] was 2400 ± 1040 ng/mL. The Half-life [4] was 0.7 ± 0.04 h, the MRT last [4] was 0.6 ± 0.1 h and the clearance [4] was 20 mL/min/kg.

Work on `C=CCc1ccc(O)c(-c2cc(CC=C)ccc2O)c1` [MGN, magnolol] yielded an IC50 ([1]; CAL-27, 24 h) of 20.7 ± 1.8 µg/mL (≈ 77.7 µM), an IC50 ([1]; CAL-27, 48 h) of 11.9 ± 0.6 µg/mL (≈ 44.7 µM) and an IC50 ([1]; CAL-27, 72 h) of 5.1 ± 0.6 µg/mL (≈ 19.1 µM). For the same molecule, the IC50 ([1]; CAL-27, 96 h) was 4 ± 0.8 µg/mL (≈ 15 µM), the IC50 [2] was 7.9 ± 0.4 µg/mL (≈ 29.7 µM) and the AUC(0-inf) [5, 12] was 37.8 ± 16.5 ng·h/mL. The AUC(0-t) [5, 12] was 23.1 ± 5.3 ng·h/mL, the Cmax [5, 12] was 9.4 ± 3.3 ng/mL and the Half-life [5, 12] was 3.8 ± 2.3 h. The MRT last [5, 12] was 2.3 ± 0.6 h, the Tmax [5, 12] was 0.9 ± 0.7 h and the AUC(0-inf) [6, 13] was 1230 ± 651 ng·h/mL. The AUC(0-t) [6, 13] was 1230 ± 650 ng·h/mL, the Cmax [6, 13] was 2280 ± 700 ng/mL and the Half-life [6, 13] was 1 ± 0.3 h. The MRT last [6, 13] was 0.8 ± 0.5 h, the clearance [6, 13] was 13.3 mL/min/kg and the V ([6]; I.V. 5 mg ME/kg, n=5) was 1.0 ± 0.4 L/kg. For the same molecule, the AUC(0-inf) [7, 12] was 182 ± 28.8 ng·h/mL, the AUC(0-t) [7, 12] was 176 ± 27.3 ng·h/mL and the Cmax [7, 12] was 29.1 ± 10.4 ng/mL. The Half-life [7, 12] was 5 ± 1.5 h, the MRT last [7, 12] was 5.1 ± 0.6 h and the Tmax [7, 12] was 2.2 ± 1.5 h. For the same molecule, the “absolute bioavailability (estimated)” value [7] was under 2%.

For `C=CCc1ccc(O)c(-c2cc(CC=C)ccc2OS(=O)(=O)O)c1` [MGN_Sulfate], the Half-life [8] was 2.2 ± 0.7 h and the Tmax [8] was 6 ± 6 min.

For `C=CCc1ccc(O)c(-c2ccc(OC)c(CC=C)c2)c1` [MHNK, 4-O-methylhonokiol], the IC50 anti-proliferation activity ([1]; treatment period 24 hr) was 14.5 ± 0.9 µg/mL (≈ 51.7 µM), the IC50 anti-proliferation activity ([1]; treatment period 48 hr) was 7.7 ± 0.8 µg/mL (≈ 27.5 µM) and the IC50 anti-proliferation activity ([1]; treatment period 72 hr) was 5.6 ± 1.4 µg/mL (≈ 20 µM). For the same molecule, the IC50 anti-proliferation activity ([1]; treatment period 96 hr) was 3.2 ± 0.3 µg/mL (≈ 11.4 µM), the IC50 anti-proliferation activity [2] was 5.2 ± 1.3 µg/mL (≈ 18.5 µM) and the “apical to basolateral permeability (Pab)” value [9] was 7.7 ± 0.4 × 10^−6 cm/sec. The “MHNK metabolized to HNK” value [10] was 51 ± 23.9%, the “HNK formation from MHNK” value [11] was “no HNK detected” and the “AUC0–24” value [5, 14] was 9.6 ± 4.0 ng·h/mL. The “AUC0−∞” value [5, 14] was 10.8 ± 3.0 ng·h/mL, the Cmax [5, 14] was 3.7 ± 0.9 ng/mL and the Tmax [5, 14] was 1.3 ± 0.6 h. The Half-life [5, 15] was 1.4 ± 0.6 h, the “MRT0–24” value [5, 15] was 1.8 ± 0.3 h and the “AUC0–24” value [6, 16] was 623.2 ± 358.8 ng·h/mL. The “AUC0−∞” value [6, 16] was 631.1 ± 360.0 ng·h/mL, the Cmax [6, 16] was 824.3 ± 309.5 ng/mL and the Half-life [6, 16] was 3 h and 2.9 ± 2.1 h. The CL ([6]; I.V. 5 mg ME/kg, n=5) was 33.3 ± 26.7 mL/min/kg, the “MRT0–24” value ([6]; I.V. 5 mg ME/kg, n=5) was 1.5 ± 0.6 h and the V ([6]; I.V. 5 mg ME/kg, n=5) was 5.5 ± 1.7 L/kg. The “AUC0–24” value [7, 17] was 79.9 ± 15.8 ^* hr*ng/mL, the “AUC0−∞” value [7, 17] was 86.3 ± 15.7 ^* hr*ng/mL and the Cmax [7, 17] was 14.3 ± 6.6 ng/mL. For the same molecule, the Tmax [7, 17] was 3.0 ± 2.0 h, the Half-life [7, 18] was 7.1 ± 2.5 h and the “MRT0–24” value [7, 18] was 5.9 ± 0.7 h. For the same molecule, the “absolute bioavailability (estimated)” value [7] was 1.1% and < 2%.
